Measured values published in US12630515B2, “Small molecule prostagladin transport inhibitors” (ALBERT EINSTEIN COLLEGE OF MEDICINE, priority 2019, dated 2026).

Target: T1, rat PGT (Rattus norvegicus, UniProt Q00910)
T1 construct: expressed in transfected cells
Assay: PGT inhibition: [3H]PGE2 uptake in MDCK cells stably transfected with rat PGT
Format: cell-based
Conditions: room temperature
Description: MDCK cells stably transfected with rat PGT ae seeded at 15-20% confluence on 96-well deepwell plates. The day on which the cells are seeded is considered day 1. PGE2 uptake experiments are conducted on day 4. All of the PGE2 uptake experiments are conducted at room temperature. On day 4, cells are washed twice with Waymouth buffer (135 mM NaCl, 13 mM H-Hepes, 13 mM Na-Hepes, 2.5 mM CaCl2, 1.2 mM MgCl2, 0.8 mM MgSO4, 5 mM KCl, and 28 mM D-glucose). Then 200 μL of Waymouth buffer containing [^3H]PGE2 (available from Perkin Elmer) is added to each well. At the designed time, the uptake of [^3H]PGE2 is stopped by aspiration of uptake buffer; followed by immediate washing twice with 500 μL of chilled Waymouth buffer. Cells are then lysed with 100 μL lysis buffer containing 0.25% SDS and 0.05 N NaOH. 1.5 mL of scintillation solution is added to each well, and intracellular [^3H]PGE2 is counted via a Beta Counter.
For preliminary testing of the compounds, 20 μL of Waymouth buffer containing the compound is added to each well; this was immediately followed by the addition of 180 μL of Waymouth buffer containing [^3H]PGE2. In each well, the total volume of uptake medium is 200 μL. Test compounds are first dissolved in organic solvent, such as EtOH, and then diluted in Waymouth buffer. The percent inhibition of [^3H]PGE2 uptake by compounds is calculated as [(uptakevehicle−uptakeinhibitor)÷(uptakevehicle)]×100.
To determine IC50 of each compound, Waymouth buffer containing various concentrations of the compound is added to each well; immediately followed by the addition of 180 μL of Waymouth buffer containing [^3H]PGE2. IC50 was calculated by fitting the following equation. y=m1-m1*(m0/(m2+m0)).

`CCOC(=O)C(CC)(CCC(=O)O)c1csc(Nc2ccccc2O)n1` (racemic) [Cmp. 1, 4-ethoxycarbonyl-4-[2-(2-hydroxyanilino)thiazol-4-yl]hexanoic acid] showed an IC50 of less than 1000 nM.
Work on `CCOC(=O)C(CC)(CCC(=O)O)c1csc(Nc2ccc(C)cc2)n1` (racemic) [Cmp. 3, 4-ethoxycarbonyl-4-[2-(4-methylanilino)thiazol-4-yl]hexanoic acid] yielded an IC50 of less than 20000 nM.
`CCOC(=O)C(CC)(CCC(=O)O)c1cncc(Nc2ccc(C)cc2)n1` (racemic) [Cmp. 5, 4-ethoxycarbonyl-4-[6-(4-methylanilino)pyrazin-2-yl]hexanoic acid] gave an IC50 of less than 10000 nM.
In the case of `CCOC(=O)C(CC)(CCC(=O)O)c1csc(Nc2ccc(F)cc2F)n1` (racemic) [Cmp. 6, 4-[2-(2,4-difluoroanilino)thiazol-4-yl]-4-ethoxycarbonyl-hexanoic acid], the IC50 is reported as less than 10000 nM.
With `CCC(CC)(CCC(=O)O)c1csc(Nc2ccccc2OC)n1` (racemic) [Cmp. 7, 4-ethyl-4-[2-(2-methoxyanilino)thiazol-4-yl]hexanoic acid] the IC50 was less than 10000 nM.
In the case of `CCOC(=O)C(CC)(CCC(=O)O)c1cncc(Nc2ccc(F)cc2F)n1` (racemic) [Cmp. 11, 4-[6-(2,4-difluoroanilino)pyrazin-2-yl]-4-ethoxycarbonyl-hexanoic acid], the IC50 is reported as less than 1000 nM.
In the case of `CCOC(=O)C(CC)(CCC(=O)O)c1csc(Nc2ccc(Cl)cc2Cl)n1` (racemic) [Cmp. 14a, 4-[2-(2,4-dichloroanilino)thiazol-4-yl]-4-ethoxycarbonyl-hexanoic acid], the IC50 is reported as less than 1000 nM.
`CCOC(=O)C(CC)(CCC(=O)O)c1nc(Nc2ccc(Cl)cc2Cl)sc1Br` (racemic) [Cmp. 14b, 4-[5-bromo-2-(2,4-dichloroanilino)thiazol-4-yl]-4-ethoxycarbonyl-hexanoic acid] gave an IC50 of less than 1000 nM.
With `CCOC(=O)C(CC)(CCC(=O)O)c1cncc(Nc2ccccc2OC)n1` (racemic) [Cmp. 17, 4-ethoxycarbonyl-4-[6-(2-methoxyanilino)pyrazin-2-yl]hexanoic acid] the IC50 was less than 1000 nM.
Work on `CCOC(=O)C(CC)(CCC(=O)O)c1cncc(Nc2cc(F)ccc2F)n1` (racemic) [Cmp. 20, 4-[6-(2,5-difluoroanilino)pyrazin-2-yl]-4-ethoxycarbonyl-hexanoic acid] yielded an IC50 of less than 1000 nM.
With `CCOC(=O)C(CC)(CCC(=O)O)c1nc(Nc2ccc(Cl)cc2Cl)sc1C` (racemic) [Cmp. 23, 4-[2-(2,4-dichloroanilino)-5-methyl-thiazol-4-yl]-4-ethoxycarbonyl-hexanoic acid] the IC50 was less than 1000 nM.
With `CCOC(=O)C(CC)(CCC(=O)O)c1nc(Nc2ccccc2Cl)sc1Cl` (racemic) [Cmp. 27 (RS), 4-[5-chloro-2-(2-chloroanilino)thiazol-4-yl]-4-ethoxycarbonyl-hexanoic acid] the IC50 was less than 1000 nM.
`CCOC(=O)C(CC)(CCC(=O)O)c1nc(Nc2ccc(F)cc2F)sc1C` (racemic) [compound 34, 4-(2-((2,4-difluorophenyl)amino)-5-methylthiazol-4-yl)-4-(ethoxycarbonyl)hexanoic acid] showed an IC50 of less than 10000 nM.
`CCC(CCC(=O)O)(C(=O)OCC(C)C)c1cncc(Nc2ccc(C)cc2)n1` (racemic) [compound 35, 4-(isobutoxycarbonyl)-4-(6-(p-tolylamino)pyrazin-2-yl)hexanoic acid] showed an IC50 of less than 10000 nM.
For `CCOC(=O)C(CCC(=O)O)(CC1CC1)c1cncc(Nc2ccc(C)cc2)n1` (racemic) [compound 36, 4-(cyclopropylmethyl)-5-ethoxy-5-oxo-4-(6-(p-tolylamino)pyrazin-2-yl)pentanoic acid], the IC50 was less than 10000 nM.
`CCOC(=O)C(CC)(CCC(=O)O)c1cncc(Nc2ccc(O)c(F)c2)n1` (racemic) [compound 37, 4-(ethoxycarbonyl)-4-(6-((3-fluoro-4-hydroxyphenyl)amino)pyrazin-2-yl)hexanoic acid] showed an IC50 of less than 1000 nM.
In the case of `CCC(CCC(=O)O)(COC)c1cncc(Nc2ccc(F)cc2F)n1` (racemic) [compound 38, 4-(6-((2,4-difluorophenyl)amino)pyrazin-2-yl)-4-(methoxymethyl)hexanoic acid], the IC50 is reported as less than 10000 nM.
`CCC(CCC(=O)O)(C(=O)OC1(C)CC1)c1cncc(Nc2ccc(F)cc2F)n1` (racemic) [compound 39, 4-(6-((2,4-difluorophenyl)amino)pyrazin-2-yl)-4-((1-methylcyclopropoxy)carbonyl)hexanoic acid] showed an IC50 of less than 1000 nM.
`CCOC(=O)C(CC)(CCC(=O)O)c1nc(Nc2ccc(Cl)cc2Cl)sc1Cl` (racemic) [compound 40, 4-(5-chloro-2-((2,4-dichlorophenyl)amino)thiazol-4-yl)-4-(ethoxycarbonyl)hexanoic acid] was tested, and the IC50 was less than 1000 nM.
With `CCOC(=O)C(CC)(CCC(=O)O)c1nc(Nc2ccccc2Cl)sc1Cl` (single isomer, unassigned) [27 (enantiomer 1)] the IC50 was less than 1000 nM.
Work on `CCC(CC)(CCC(=O)O)c1csc(Nc2ccc(C)cc2)n1` [Cmp. 2, 4-ethyl-4-[2-(4-methylanilino)thiazol-4-yl]hexanoic acid] yielded an IC50 of less than 100000 nM.
`CCC(CC)(CCC(=O)O)c1csc(Nc2ccccc2Cl)n1` [Cmp. 8, 4-[2-(2-chloroanilino)thiazol-4-yl]-4-ethyl-hexanoic acid] gave an IC50 of less than 10000 nM.
`CCC(CC)(CCC(=O)O)c1csc(Nc2cccc(OC)c2)n1` [Cmp. 9, 4-ethyl-4-[2-(3-methoxyanilino)thiazol-4-yl]hexanoic acid] was tested, and the IC50 was less than 10000 nM.
Compound `CCC(CC)(CCC(=O)O)c1nc(Nc2ccccc2O)sc1C` [Cmp. 10, 4-ethyl-4-[2-(2-hydroxyanilino)-5-methyl-thiazol-4-yl]hexanoic acid] has an IC50 of less than 1000 nM.
For `CCOC(=O)C(CC)(CCC(=O)O)c1ccnc(Nc2ccc(C)cc2)n1` (stereo not drawn) [Cmp. 13, 4-ethoxycarbonyl-4-[2-(4-methylanilino)pyrimidin-4-yl]hexanoic acid], the IC50 was less than 10000 nM.
In the case of `CCC(CC)(CCC(=O)O)c1cncc(Nc2ccc(F)cc2F)n1` [Cmp. 18, 4-[6-(2,4-difluoroanilino)pyrazin-2-yl]-4-ethyl-hexanoic acid], the IC50 is reported as less than 1000 nM.
`CCc1ncc(Nc2ccc(F)cc2F)nc1C(CC)(CC)CCC(=O)O` [Cmp. 19, 4-[6-(2,4-difluoroanilino)-3-ethyl-pyrazin-2-yl]-4-ethyl-hexanoic acid] showed an IC50 of less than 1000 nM.
Compound `CCC(CC)(CCC(=O)O)c1nc(Nc2ccc(F)cc2F)sc1C` [Cmp. 21, 4-[2-(2,4-difluoroanilino)-5-methyl-thiazol-4-yl]-4-ethyl-hexanoic acid] has an IC50 of less than 1000 nM.
Work on `CCC(CC)(CCC(=O)O)c1nc(Nc2ccc(F)cc2F)sc1Br` [Cmp. 22b, 4-[5-bromo-2-(2,4-difluoroanilino)thiazol-4-yl]-4-ethyl-hexanoic acid] yielded an IC50 of less than 1000 nM.
For `CCC(CC)(CCC(=O)O)c1nc(Nc2ccc(Cl)cc2Cl)sc1C` [Cmp. 24, 4-[2-(2,4-dichloroanilino)-5-methyl-thiazol-4-yl]-4-ethyl-hexanoic acid], the IC50 was less than 1000 nM.
`CCC(CC)(CCC(=O)O)c1cncc(Nc2ccccc2Cl)n1` [Cmp. 28, 4-[6-(2-chloroanilino)pyrazin-2-yl]-4-ethyl-hexanoic acid] was tested, and the IC50 was less than 1000 nM.
`CCC(CC)(CCC(=O)O)c1cncc(Nc2cc(F)c(F)cc2F)n1` [Cmp. 29, 4-ethyl-4-[6-(2,4,5-trifluoroanilino)pyrazin-2-yl]hexanoic acid] was tested, and the IC50 was less than 1000 nM.
For `CCC(CC)(CCC(=O)O)c1csc(-c2ccccc2)n1` [compound 30, 4-ethyl-4-(2-phenylthiazol-4-yl)hexanoic acid], the IC50 was less than 10000 nM.
Compound `CCC(CC)(CCC(=O)O)c1csc(Nc2ccc(C(F)(F)F)cc2)n1` [compound 31, 4-ethyl-4-(2-((4-(trifluoromethyl)phenyl)amino)thiazol-4-yl)hexanoic acid] has an IC50 of less than 20000 nM.
`CCC(CC)(CCC(=O)O)c1coc(Nc2ccc(C)cc2)n1` [compound 32, 4-ethyl-4-(2-(p-tolylamino)oxazol-4-yl)hexanoic acid] gave an IC50 of less than 100000 nM.
In the case of `CCC(CC)(CCC(=O)O)c1nnc(Nc2ccc(C)cc2)o1` [compound 33, 4-ethyl-4-(5-(p-tolylamino)-1,3,4-oxadiazol-2-yl)hexanoic acid], the IC50 is reported as less than 10000 nM.
